Source: ChEMBL document CHEMBL4402585 (J Med Chem, 2020)
The source made the active and inactive calls. The rule behind the calls is not given here.

What was measured:
Cytochrome P450 2C19 = Cytochrome P450 2C19 (Homo sapiens, UniProt P33261); test: Inhibition of CYP2C19 in human liver microsomes using S-mephenytoin as substrate preincubated for 10 mins followed by NADPH addition and measured after 15 mins by LC-MS/MS analysis; format: ADME
[1] = molecular target: Histone acetyltransferase p300 (Homo sapiens, UniProt Q09472); test: Inhibition of MSGRGK(Ac)-GGK(Ac)GLGK(Ac)GGAKRHR-biotin binding to EP300 (1040 to 1160 residues) (unknown origin) expressed in Escherichia coli BL21 (DE3) by Alphascreen assay
Chain of Histone acetyltransferase p300 (Q09472 whole entry, the tested form may be a part): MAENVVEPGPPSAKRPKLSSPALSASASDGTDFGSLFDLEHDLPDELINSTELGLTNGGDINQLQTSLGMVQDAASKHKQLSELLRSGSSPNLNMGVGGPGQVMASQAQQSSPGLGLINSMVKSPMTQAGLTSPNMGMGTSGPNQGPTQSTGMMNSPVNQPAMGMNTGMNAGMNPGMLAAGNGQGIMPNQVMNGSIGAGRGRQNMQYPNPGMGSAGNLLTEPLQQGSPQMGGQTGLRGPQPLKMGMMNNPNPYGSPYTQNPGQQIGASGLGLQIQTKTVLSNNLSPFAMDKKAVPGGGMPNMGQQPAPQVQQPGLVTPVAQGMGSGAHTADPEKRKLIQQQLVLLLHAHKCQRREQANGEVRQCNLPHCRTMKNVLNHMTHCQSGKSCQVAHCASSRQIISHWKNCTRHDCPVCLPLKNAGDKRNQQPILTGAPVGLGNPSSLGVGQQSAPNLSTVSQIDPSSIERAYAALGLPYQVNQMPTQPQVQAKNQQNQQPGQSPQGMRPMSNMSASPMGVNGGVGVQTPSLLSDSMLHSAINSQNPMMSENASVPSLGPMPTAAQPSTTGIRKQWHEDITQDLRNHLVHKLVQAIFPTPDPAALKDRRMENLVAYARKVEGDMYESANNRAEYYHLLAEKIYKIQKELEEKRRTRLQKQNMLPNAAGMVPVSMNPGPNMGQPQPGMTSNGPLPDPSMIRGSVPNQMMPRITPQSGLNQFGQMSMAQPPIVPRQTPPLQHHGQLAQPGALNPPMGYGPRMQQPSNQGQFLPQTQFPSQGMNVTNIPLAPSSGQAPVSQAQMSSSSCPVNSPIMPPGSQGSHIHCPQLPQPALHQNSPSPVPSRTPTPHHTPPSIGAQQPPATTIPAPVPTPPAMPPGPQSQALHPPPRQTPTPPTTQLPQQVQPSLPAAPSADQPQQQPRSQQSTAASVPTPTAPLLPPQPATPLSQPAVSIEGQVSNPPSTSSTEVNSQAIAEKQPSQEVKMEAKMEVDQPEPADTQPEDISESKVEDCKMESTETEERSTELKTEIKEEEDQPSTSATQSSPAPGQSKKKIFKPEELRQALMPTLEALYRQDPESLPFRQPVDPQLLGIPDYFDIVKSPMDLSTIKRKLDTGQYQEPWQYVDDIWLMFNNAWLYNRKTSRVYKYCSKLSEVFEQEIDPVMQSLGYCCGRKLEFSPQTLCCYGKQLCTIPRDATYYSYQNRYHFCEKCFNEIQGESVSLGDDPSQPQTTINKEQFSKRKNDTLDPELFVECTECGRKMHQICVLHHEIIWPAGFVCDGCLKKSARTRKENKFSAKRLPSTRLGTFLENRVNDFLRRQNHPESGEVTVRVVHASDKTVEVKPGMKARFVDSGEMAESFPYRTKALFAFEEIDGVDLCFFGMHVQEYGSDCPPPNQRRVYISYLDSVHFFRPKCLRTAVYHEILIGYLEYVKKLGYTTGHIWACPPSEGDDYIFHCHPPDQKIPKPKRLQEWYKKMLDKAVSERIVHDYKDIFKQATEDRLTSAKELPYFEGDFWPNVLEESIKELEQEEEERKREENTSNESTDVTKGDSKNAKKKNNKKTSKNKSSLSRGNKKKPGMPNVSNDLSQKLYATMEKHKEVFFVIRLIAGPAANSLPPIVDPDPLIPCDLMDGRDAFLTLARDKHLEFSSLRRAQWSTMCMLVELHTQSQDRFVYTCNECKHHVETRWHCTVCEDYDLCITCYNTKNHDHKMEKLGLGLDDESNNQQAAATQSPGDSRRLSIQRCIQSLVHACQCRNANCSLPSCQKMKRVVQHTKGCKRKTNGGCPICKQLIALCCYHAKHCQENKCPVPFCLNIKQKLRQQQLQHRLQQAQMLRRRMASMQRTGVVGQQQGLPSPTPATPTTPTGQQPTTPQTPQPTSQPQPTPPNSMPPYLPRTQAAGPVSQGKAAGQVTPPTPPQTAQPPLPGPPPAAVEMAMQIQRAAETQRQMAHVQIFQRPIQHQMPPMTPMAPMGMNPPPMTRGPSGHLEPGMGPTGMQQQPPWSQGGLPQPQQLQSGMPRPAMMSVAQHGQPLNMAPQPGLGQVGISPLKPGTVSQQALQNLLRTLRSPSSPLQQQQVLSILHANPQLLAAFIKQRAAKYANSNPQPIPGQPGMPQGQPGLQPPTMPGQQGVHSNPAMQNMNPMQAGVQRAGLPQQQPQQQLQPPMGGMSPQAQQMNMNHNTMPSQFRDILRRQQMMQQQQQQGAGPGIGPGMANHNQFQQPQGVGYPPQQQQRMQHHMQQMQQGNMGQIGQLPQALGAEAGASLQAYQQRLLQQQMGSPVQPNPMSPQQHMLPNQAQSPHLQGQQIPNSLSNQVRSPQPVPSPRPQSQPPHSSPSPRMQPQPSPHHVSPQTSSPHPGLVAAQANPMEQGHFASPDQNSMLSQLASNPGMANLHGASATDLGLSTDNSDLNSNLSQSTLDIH

MV4-11 [2] = test: Cell cycle arrest in human MV4-11 cells assessed as increase in accumulation at G1-phase at 31.25 nM measured after 24 hrs by propidium iodide staining based flow cytometry; format: functional
[3] = Volume of distribution at steady state in Sprague-Dawley rat at 1 mg/kg, iv by LC-MS/MS analysis; format: ADME, organism-based; conditions: in vivo, read-out: Vdss
[4] = molecular target: Bromodomain testis-specific protein (Homo sapiens, UniProt Q58F21); test: Binding affinity to human partial length BRDT bromodomain 2 isoform b (K250 to E382 residues) expressed in bacterial expression system by bromoscan assay
MV4-11 [5] = test: Antitumor activity against human MV4-11 cells xenografted in mouse assessed as tumor growth inhibition at 12.5 mg/kg, po administered for 28 days and measured every 2 to 3 days during compound dosing relative to control; format: functional; conditions: MV4-11, po, read-out: TGI
[6] = Clearance in human liver microsomes at 0.1 uM preincubated for 10 mins followed by NADPH addition and measured up to 60 mins by LC-MS/MS analysis; format: ADME, Microsome; conditions: 1 h
[7] = Clearance in monkey liver microsomes at 0.1 uM preincubated for 10 mins followed by NADPH addition and measured up to 60 mins by LC-MS/MS analysis; format: ADME, Macaca mulatta, Microsome; conditions: rhesus monkey, 1 h
[8] = molecular target: Bromodomain-containing protein 2 (Homo sapiens, UniProt P25440); test: Binding affinity to human partial length BRD2 BD2 isoform 1 (E348 to D455 residues) expressed in bacterial expression system by bromoscan assay
Chain of Bromodomain-containing protein 2 (P25440 whole entry, the tested form may be a part, canonical isoform): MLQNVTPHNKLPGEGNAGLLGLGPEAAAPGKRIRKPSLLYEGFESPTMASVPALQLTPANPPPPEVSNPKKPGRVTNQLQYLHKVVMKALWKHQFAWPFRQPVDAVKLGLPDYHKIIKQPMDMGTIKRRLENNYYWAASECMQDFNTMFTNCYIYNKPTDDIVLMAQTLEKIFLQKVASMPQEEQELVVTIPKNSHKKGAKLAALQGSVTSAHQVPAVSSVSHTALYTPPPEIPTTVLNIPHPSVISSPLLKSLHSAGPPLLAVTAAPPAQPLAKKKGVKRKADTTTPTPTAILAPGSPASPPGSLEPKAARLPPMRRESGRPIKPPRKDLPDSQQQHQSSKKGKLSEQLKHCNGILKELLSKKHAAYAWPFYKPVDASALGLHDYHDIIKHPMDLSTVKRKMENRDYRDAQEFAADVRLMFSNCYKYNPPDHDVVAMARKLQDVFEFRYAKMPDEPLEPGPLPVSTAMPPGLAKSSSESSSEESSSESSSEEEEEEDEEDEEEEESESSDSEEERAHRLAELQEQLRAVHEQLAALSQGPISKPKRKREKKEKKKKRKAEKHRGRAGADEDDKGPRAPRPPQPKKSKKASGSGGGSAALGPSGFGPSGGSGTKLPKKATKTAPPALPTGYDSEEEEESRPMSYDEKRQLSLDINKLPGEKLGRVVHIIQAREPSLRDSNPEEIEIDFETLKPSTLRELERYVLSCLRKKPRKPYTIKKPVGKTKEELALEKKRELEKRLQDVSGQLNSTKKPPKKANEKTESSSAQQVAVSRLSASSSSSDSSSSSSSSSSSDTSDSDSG

[9] = Oral bioavailability in Sprague-Dawley rat at 3 mg/kg by LC-MS/MS analysis; format: ADME, organism-based; conditions: in vivo
[10] = molecular target: T1, Bromodomain-containing protein 4 (Homo sapiens, UniProt O60885); test: Inhibition of BRD4 in human MV4-11 cells assessed as reduction in c-Myc expression measured after 6 to 24 hrs by Western blot analysis; format: cell-based
MV4-11 [11] = test: Antiproliferative activity against human MV4-11 cells assessed as reduction in cell viability measured after 72 hrs by Celltitre-glo luminescence assay; format: functional, cell-based; conditions: MV4-11, 72 h
[12] = AUC (0 to t) in Sprague-Dawley rat at 1 mg/kg, iv by LC-MS/MS analysis; format: ADME, organism-based; conditions: in vivo
[13] = molecular target: T1, Bromodomain-containing protein 4
Description: Binding affinity to N-terminal His6-tagged BRD4 bromodomain 1 (49 to 170 residues) (unknown origin) expressed in Escherichia coli BL21 (DE3) assessed as change in melting temperature at 1:100 molar ratio by SYPRO orange dye based fluorescence thermal shift assay

Chain of Cytochrome P450 2C19 (P33261 whole entry, the tested form may be a part): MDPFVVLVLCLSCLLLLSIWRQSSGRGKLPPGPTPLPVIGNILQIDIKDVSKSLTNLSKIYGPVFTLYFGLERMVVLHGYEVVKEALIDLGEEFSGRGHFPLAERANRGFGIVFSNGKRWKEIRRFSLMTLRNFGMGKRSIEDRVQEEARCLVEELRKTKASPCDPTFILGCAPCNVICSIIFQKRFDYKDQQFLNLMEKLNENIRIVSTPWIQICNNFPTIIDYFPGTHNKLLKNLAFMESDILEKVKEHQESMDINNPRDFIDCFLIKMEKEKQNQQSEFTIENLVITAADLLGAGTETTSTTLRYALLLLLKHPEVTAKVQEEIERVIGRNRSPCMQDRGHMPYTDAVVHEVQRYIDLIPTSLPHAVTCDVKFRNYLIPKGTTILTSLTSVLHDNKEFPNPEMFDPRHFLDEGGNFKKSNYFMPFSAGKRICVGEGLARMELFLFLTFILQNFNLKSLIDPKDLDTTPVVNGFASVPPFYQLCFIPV

**Q.** Which results are given for `CCS(=O)(=O)Cc1cnc(Oc2ccc(F)cc2F)c(-c2cc(C)c3c(=O)[nH]ccn23)c1`?
**A.** IC50 (Cytochrome P450 2C19): > 20000 nM; IC50 [1]: 3860 nM; Activity (MV4-11 [2]): Active; Vd [3]: 1.46 L/kg; Kd [4]: 2.1 nM; inhibition in vivo at 12.5 mg/kg (MV4-11 [5]): 99.7%; Microsomal intrinsic clearance [6]: 12.2 mL/min/g; CLH [7]: 42.7 mL/min/g; Kd [8]: 1.3 nM; bioavailability [9]: 34.7%; inhibition [10]: Dose-dependent effect; IC50 (MV4-11 [11]): 2.4 nM; AUC(0-t) [12]: 848 ng·h/mL; ΔTm [13]: > 1 °C
